# Assay results reported in patent US7488468B1, “Near infrared fluorescent contrast agent and fluorescence imaging” (Schering AG, priority 1998, dated 2009).
# Assays:
# [1] = Partition coefficient (log Po/w) of n-butanol/water; type: physicochemical; settings: n-butanol/water two-phase system
# From the text: The fluorescent contrast agent to be used in a living body should be particularly water soluble. […] For easy synthesis, the number of the sulfonic acid groups is not more than 10, preferably not more than 8. The improvement in the water solubility can be determined by measuring partition coefficient of each compound, which for example, may be measured in a two-phase system of butanol/water. More specifically, introduction of 3 or more sulfonic acid groups results in a partition coefficient log Po/w of n-butanol/water of not more than −1.00.
# mice = experiment: Acute toxicity; type: in vivo; settings: intravenous injection from tail vein, conscious mice, monitored for 3 days
# Procedure: Reduction of toxicity by the introduction of sulfonic acid group and reduction thereof by conversion into sodium salt were studied.
# Each test compound was dissolved in distilled water to give a compound solution. This solution was intravenously injected to the conscious mice from the tail vein. The mice were monitored for 3 days after the administration, and acute toxicity [LD50 (mg/kg body weight)] was estimated.
structure (smiles),measurement,setting,value
CC1(C)C(=CC=CC2=[N+](CCCS(=O)(=O)[O-])c3ccccc3C2(C)C)N(CCCS(=O)(=O)[O-])c2ccccc21.[Na+] [NK-1967],log Po/w (butanol/water),[1],0.34
same,LD50,mice,20 mg/kg body weight
